Results reported in patent US20160376605A1, “WHEAT PLANTS HAVING INCREASED TOLERANCE TO IMIDAZOLINONE HERBICIDES” (BASF SE, priority 2003, published 2016).

Tests used:
[1] = system: Wild Type durum wheat cultivar; test: Field Trials (2): tolerance scores at two rates of imazamox; format: in vivo; conditions: for % Chlorosis / % Height Reduction: Wild Type
Excerpt: (§1) One hundred ten M3:4 lines derived from sixteen M2 plants were screened at 71 g/ha and 160 g/ha imazamox. The number of M4 lines per M2 plant varied from one to twenty. Tolerance of M3:4 lines was compared to untreated plots of the same line as well as to treated plots of a wild-type cultivar from which some of them were derived.
(§2) All tested lines survived at both rates of herbicide treatment, whereas all plants of the wild type were killed at both rates. Based on comparison to the wild type line, all lines tested expressed considerable tolerance to the applied rates, particularly when looking at height reduction relative to untreated plots. A rate of 35 g/ha imazamox is adequate to kill susceptible durum wheat.

[2] = system: One hundred ten M3:4 durum lines derived from sixteen M2 plants; test: Field Trials (2): all tested M3:4 lines; format: in vivo, Durum wheat
Excerpt: as §1, §2

[3] = system: Fifteen Durum lines, each derived from a different M2 plant; test: Greenhouse Trial: all fifteen mutagenesis-derived lines; format: in vivo, Durum wheat; conditions: 100 and 160 g/ha imazamox
Protocol: Fifteen Durum lines, each derived from a different M2 plant, and two wild type durum lines were evaluated for tolerance to the imidazolinone herbicide imazamox at rates of 100 and 160 g/ha in a greenhouse trial. Evaluations of tolerance were made at 14 and 21 days after treatment. Injury was scored on a 0-9 scale, with 0 representing no injury and 9 plant death.
A rate of 35 g/ha imazamox is adequate to kill susceptible Durum wheat.

In the case of `COCc1cnc(C2=NC(C)(C(C)C)C(=O)N2)c(C(=O)O)c1` (stereo not drawn) [imazamox], the “% Chlorosis” value ([1]; imazamox 71 g/ha, 14 DAT) is reported as 90%, the “% Height Reduction” value ([1]; imazamox 71 g/ha, 14 DAT) is reported as 100% and the “% Chlorosis” value ([1]; imazamox 71 g/ha, 30 DAT) is reported as 100%. For the same molecule, the “% Height Reduction” value ([1]; imazamox 71 g/ha, 30 DAT) was 100%, the “% Chlorosis” value ([1]; imazamox 160 g/ha, 14 DAT) was 90% and the “% Height Reduction” value ([1]; imazamox 160 g/ha, 14 DAT) was 100%. The “% Chlorosis” value ([1]; imazamox 160 g/ha, 30 DAT) was 100%, the “% Height Reduction” value ([1]; imazamox 160 g/ha, 30 DAT) was 100% and the “survival of wild type plants” value ([1]; imazamox 71 g/ha and 160 g/ha (both rates), all plants of the wild type) was “killed”. For the same molecule, the “survival of tested lines” value ([2]; imazamox 71 g/ha and 160 g/ha (both rates), all tested M3:4 lines) was “survived”, the “tolerated rate relative to the 35 g/ha rate that kills susceptible durum wheat” value ([2]; lines evaluated at 71 and 160 g/ha imazamox) was “almost 3 times to over 4 times” and the tolerance to imazamox [3] was “excellent tolerance”.
